The nature of data set [1]: in vivo. The note with it: rat, plasma, po, 10 mg/kg.
Data set [2] in a line: In vivo PK after oral administration in rats, incl. brain and plasma levels. The note with it: rat, oral 10 mg/kg; for Vd: sodium salt; for Brain: brain harvested at or near Tmax; for Plasma: plasma harvested at or near Tmax.
The nature of data set [3]: in vivo. The note with it: rat, plasma, iv, 2 mg/kg.
Data set [4] in a line: in vivo. The following applies: rat, plasma, ip, 10 mg/kg.

The values that follow come from paper PMC3508153 (Journal of medicinal chemistry, 2012).

What is called AUC(0-t) is the area under the concentration-time curve up to a stated or last time point. A high value points to more exposure. `COc1ccc(C(=O)O)cc1-c1cccc(COc2ccc3c(c2)CN(C2CCCC2)C3=O)c1` [Compound 15a, 3'-((2-Cyclopentyl-1-oxoisoindolin-5-yloxy)methyl)-6-methoxybiphenyl-3-carboxylic acid]: the AUC(0-t) in the data set “in vivo [1]” was 12 µM·h. Also, in data set [2], the Vd is 10875.2 mL, the Brain is 0.18 ± 0.01 µM and the Plasma was 1.46 ± 0.29 µM.
For the molecule `O=C(O)c1cc(-c2cccc(COc3ccc4c(c3)CN(C3CCCC3)C4=O)c2)ccc1Cl` [Compound 2], the AUC(0-t) is 42.5 µM·h in “in vivo [1]” and 11.8 µM·h in “in vivo [3]”.
As for `O=C(O)c1cc(-c2cccc(COc3ccc4c(=O)n(C5CC5)sc4c3)c2)ccc1Cl` [Compound 3e, 4-Chloro-3'-((2-cyclopropyl-3-oxo-2,3-dihydrobenzo[d]isothiazol-6-yloxy)methyl)biphenyl-3-carboxylic acid], in “in vivo [1]”, the AUC(0-t) is 61.5 µM·h. Besides, in data set [2], the Vd is listed as 4.1 mL, the Brain was found to be 0.03 ± 0.01 µM and the Plasma came out at 0.8 ± 0.2 µM.
In “in vivo [1]”, `O=C(O)c1cc(-c2cccc(COc3ccc4c(c3)CN(C3CCCC3)C4=O)c2)ccc1O` [Compound 15b, 3'-((2-Cyclopentyl-1-oxoisoindolin-5-yloxy)methyl)-4-hydroxybiphenyl-3-carboxylic acid] gave an AUC(0-t) of 7.1 µM·h. In the data set “in vivo [3]”, this molecule gave an AUC(0-t) of 2.57 µM·h. Further, in data set [2], the Vd is 28.0 mL, the Brain was determined as 0.0071 ± 0.0004 µM and the Plasma came to 0.21 ± 0.046 µM.
For the molecule `O=C(O)c1cc(-c2cccc(-c3ccc4c(c3)CN(C3CCCC3)C4=O)c2)ccc1Cl` [Compound 24, 4-Chloro-3'-(2-cyclopentyl-1-oxoisoindolin-5-yl)biphenyl-3-carboxylic acid], the AUC(0-t) was 2.67 µM·h in “in vivo [1]” and 3.23 µM·h in “in vivo [4]”. Further, the Vd in data set [2] turned out to be 96.2 mL.
